Results taken from article PMC12366361, “Biochemical properties of glycerol kinase from the hypersaline-adapted archaeon Haloferax volcanii” (Applied and Environmental Microbiology, 2025).

How the values were obtained:
[1] = molecular target: T1, glycerol kinase (GK, His-GK) (Haloferax volcanii, UniProt D4GYI5); test: coupled enzyme kinetics of purified His-GK (Hill fit, n = […]); supported by DSF shift ([…] to […]°C) and SEC dimer-to-tetramer shift; format: biochemical
T1 construct: gene glpK; N-terminal His-tagged GK (His-GK)
T1 sequence (D4GYI5 1-510): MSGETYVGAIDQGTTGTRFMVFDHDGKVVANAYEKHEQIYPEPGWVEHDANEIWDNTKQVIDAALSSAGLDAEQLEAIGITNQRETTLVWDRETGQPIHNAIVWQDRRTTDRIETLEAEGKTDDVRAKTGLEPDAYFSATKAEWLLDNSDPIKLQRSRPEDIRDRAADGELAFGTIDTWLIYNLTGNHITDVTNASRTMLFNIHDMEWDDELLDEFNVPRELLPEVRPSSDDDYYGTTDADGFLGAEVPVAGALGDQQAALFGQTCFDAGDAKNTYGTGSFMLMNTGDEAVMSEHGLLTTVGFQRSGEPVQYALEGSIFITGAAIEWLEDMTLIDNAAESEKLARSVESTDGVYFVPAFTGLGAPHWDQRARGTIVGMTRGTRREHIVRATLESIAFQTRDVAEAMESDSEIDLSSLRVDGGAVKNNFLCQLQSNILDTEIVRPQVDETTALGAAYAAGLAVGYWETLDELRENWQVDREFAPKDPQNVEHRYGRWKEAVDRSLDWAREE

[2] = molecular target: T1, glycerol kinase (GK, His-GK); test: coupled enzyme kinetics of purified His-GK (Hill fit, n = […]); further DSF stabilization together with glycerol ([…]°C); format: biochemical
[3] = molecular target: the molecule itself; test: SEC; Superdex 200 Increase 10/300 GL, 50 mM HEPES pH 7.5, 2 M NaCl, 1 mM DTT, without glycerol; 0.3 mL/min; Ni2+-NTA-purified His-GK dialysed against the same buffer; mass from Kav against standards
[4] = molecular target: the molecule itself; test: SEC; Superdex 200 Increase 10/300 GL, 50 mM HEPES pH 7.5, 2 M NaCl, 1 mM DTT, with 10% (vol/vol) glycerol; 0.3 mL/min; Ni2+-NTA-purified His-GK dialysed against the same buffer; the isolated tetramer was also kept overnight at 4°C and run again; mass from Kav against standards

Molecule: OCC(O)CO [glycerol]
- Kd [1]: 1440 ± 160 µM

Molecule: Nc1ncnc2c1ncn2[C@@H]1O[C@H](COP(=O)(O)OP(=O)(O)OP(=O)(O)O)[C@@H](O)[C@H]1O [ATP]
- Kd [2]: 1600 ± 80 µM

B1: Haloferax volcanii glycerol kinase fused to an N-terminal polyhistidine tag (His-GK) (enzyme, UniProt D4GYI5 1-510, looked up)
chain: T1 sequence (D4GYI5 1-510)
notes: calculated His-GK monomer 56.7 kDa; Found by SEC as a homodimer (no glycerol) or as a homodimer plus a homotetramer (10% glycerol); also called GlpK; H. volcanii GK; source: H. volcanii H1207-pJAM4351 grown in GlyMM, purified (Ni2+-NTA resin, then SEC); not shown: His6, N-terminal, kept
- stoichiometry N [3]: 2
- stoichiometry N [4]: 4
